Patent publication US20230337677A1, “ARYL AND PYRIDYL AMIDE PESTICIDES AND COMPOSITIONS THEREOF” (University of Florida Research Foundation, Incorporated, priority 2019, published 2023)
Read-outs that look alike come from different tables or passages of the source.

Key:
[1] = system: Aedes aegypti mosquitoes, insecticide-susceptible Orlando strain; type: in vivo; conditions: for 1 h % Repellency, 100 μg/cm^2: screened at 100 μg/cm^2, strain not given; for vapor repellency / mortality, statement in words (Example 8): structure-activity analysis of Table 2; for 1 h Repellency EC50, μg/cm^2: (OR); for knockdown in 1 hr repellency test (XXkd = number of insects incapacitated out of 16 females): 100 μg/cm^2
Protocol: The tubes as shown were held horizontally on the bench.
For assessing behavioral repellency (FIG. 1), Aedes aegypti mosquitoes were used from the insecticide-susceptible Orlando strain and the pyrethroid-resistant Puerto Rico strain. Sixteen female mosquitoes were transferred to a glass tube (12.5 cm long, 2.5 cm outer diameter) with the ends covered with netting. Each compound was dissolved in 1 mL of acetone and serial dilutions ranging from 30-0.01 μg/ml were made. Circular filter papers (5 cm^2) were saturated with 50 μL of each concentration and allowed 10 min for solvent evaporation. The filter papers were then placed in clear conical polypropylene caps and fixed to the end of the glass tubes. The netting prevented mosquito contact with the filter paper. The tubes were then aligned with a mark denoting the midline and the proportion of mosquitoes on the chemically treated side was scored for up to 60 min. At the end of the test, the tube was placed in a cage and the ability of the mosquitoes to fly out of the tube was assessed for 30 min. […] This post-test evaluated whether any non-responding mosquitoes (not repelled) resulted from intoxication or disorientation from the test chemical. For assessment of lethality, insects were held for 24 hr under constant exposure in glass tubes having treated filter papers.
Compounds were first screened at 100 μg/cm^2 for repellency and 24 h mortality.

[2] = system: Aedes aegypti mosquitoes, insecticide-susceptible Orlando strain; assay: whole plant or invertebrate; conditions: 24 h, read-out: 24 h % Mortality, 100 μg/cm^2
[3] = system: Aedes aegypti strain Orlando (sensitive); assay: Topical toxicity (24 hour mortality), Ae. aegypti Orlando; type: in vivo; conditions: topical application, 24 h mortality, female adults, susceptible Orlando strain
In short: (§1)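 Females aged 3–6 days received 200 nL of compound in ethanol topically on the thorax, 10 per concentration per replicate, and were kept at 28° C with sugar water.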

[4] = system: Anopheles gambiae Akron kdr (Akdr) strain, resistant to pyrethroids; assay: Topical toxicity (24 hour mortality), An. gambiae Akdr; type: in vivo; conditions: topical application, 24 h mortality, female adults, pyrethroid-resistant Akdr strain
In short: as §1

[5] = system: Anopheles gambiae G3 sensitive strain; assay: Topical toxicity (24 hour mortality), An. gambiae G3; type: in vivo; conditions: topical application, 24 h mortality, female adults, susceptible strain G3
In short: as §1

[6] = system: Aedes aegypti mosquitoes, insecticide-susceptible Orlando strain; conditions: for 24 h LC50, μg/cm^2: LC50 (OR)

SMILES	1 h % Repellency, 100 μg/cm^2 [1]	mortality at 100 µg/cm2 [2]	also measured
C=CC(=O)Nc1ccccc1NC(=O)C=C [GMR024]	0%	3%	vapor repellency / mortality, statement in words (Example 8) [1]: reduced repellency and poor toxicity
O=C(Nc1ccnc(Br)c1)C(F)(F)C(F)(F)C(F)(F)C(F)(F)C(F)(F)F [GMR069]	−12%	13%	Ae. aegypti OR LD50 [3]: 2261 ng/mg; An. gambiae AKDR LD50 [4]: 3425 ng/mg
O=C(Nc1cc(C(F)(F)F)ccn1)C(F)(F)C(F)(F)C(F)(F)F [GMR085]	70%	13%	1 h Repellency EC50, μg/cm^2 [1]: 49 μg/cm^2; Ae. aegypti OR LD50 [3]: >6000 ng/mg; An. gambiae AKDR LD50 [4]: >50 ng/mg; An. gambiae G3 LD50 [5]: >100 ng/mg
O=C(OCc1c(F)c(F)cc(F)c1F)C(F)(F)C(F)(F)C(F)(F)F [GMR090]	−12%	9%	Ae. aegypti OR LD50 [3]: >1000 ng/mg; An. gambiae AKDR LD50 [4]: >100 ng/mg; An. gambiae G3 LD50 [5]: >100 ng/mg
O=C(Nc1cc(Cl)cc(Cl)c1)C(F)(F)C(F)(F)OC(F)(F)F [GMR099]	74%	81%	Ae. aegypti OR LD50 [3]: 3279 ng/mg; An. gambiae AKDR LD50 [4]: >1000 ng/mg; An. gambiae G3 LD50 [5]: >1000 ng/mg
N#CC(F)(F)C(=O)Nc1cc(F)c(F)c(F)c1 [GMR102]	74%	22%	1 h Repellency EC50, μg/cm^2 [1]: 28 μg/cm^2; vapor repellency / mortality, statement in words (Example 8) [1]: moderate repellency and toxicity; Ae. aegypti OR LD50 [3]: 2164 ng/mg; An. gambiae AKDR LD50 [4]: >100 ng/mg; An. gambiae G3 LD50 [5]: >100 ng/mg
O/N=C(\Nc1cc(Cl)nc(Cl)c1)C(F)(F)C(F)(F)C(F)(F)F [GMR104]	12%	0%	Ae. aegypti OR LD50 [3]: 393 ng/mg; An. gambiae G3 LD50 [5]: >100 ng/mg
CN(C(=O)C(F)(F)C(F)(F)OC(F)(F)F)c1cc(Cl)nc(Cl)c1 [GMR106]	–	–	knockdown in 1 hr repellency test (XXkd = number of insects incapacitated out of 16 females) [1]: 2; Ae. aegypti OR LD50 [3]: 846 ng/mg; 24 h % Mortality, 100 μg/cm^2 ([6]; in vivo): 100%; An. gambiae G3 LD50 [5]: >1000 ng/mg
O=C(NCc1cc(Cl)nc(Cl)c1)C(F)(F)C(F)(F)C(F)(F)F [GMR107]	50%	0%	Ae. aegypti OR LD50 [3]: 2173 ng/mg
CN(C(=O)C(F)(F)C(F)(F)C(F)(F)F)c1cc(F)c(F)c(F)c1 [GMR113]	0%	6%	–
CN(C(=O)C(F)(F)C(F)(F)OC(F)(F)F)c1cc(F)c(F)c(F)c1 [GMR114]	0%	6%	–
CC(=O)Nc1c(Cl)cncc1Cl [GMR130]	34%	81%	–
CCCC(=O)Nc1c(Cl)cncc1Cl [GMR132]	4%	28%	–
O=C(Nc1cc(F)c(F)c(F)c1)C(F)(F)C(F)(F)F [GMR135]	74%	–	1 h Repellency EC50, μg/cm^2 [1]: 22.1 μg/cm^2; Ae. aegypti OR LD50 [3]: 1792 ng/mg; 24 h LC50, μg/cm^2 ([6]; 24 h): 21.6 μg/cm^2; 24 h % Mortality, 100 μg/cm^2 ([6]; screened at 100 μg/cm^2, 24 h, strain not given): 100%
CC(C(=O)Nc1cc(F)c(F)c(F)c1)(C(F)(F)F)C(F)(F)F [GMR139]	24%	100%	1 h Repellency EC50, μg/cm^2 [1]: 6.9 μg/cm^2; vapor repellency / mortality, statement in words (Example 8) [1]: reduced repellency; 24 h LC50, μg/cm^2 ([6]; 24 h): 16.6 μg/cm^2
CC(=O)Nc1cc(F)c(F)c(F)c1 [GMR142]	50%	66%	–
CC1(C)[C@H](C=C(Cl)Cl)[C@H]1C(=O)Nc1cc(F)c(F)c(F)c1 [GMR148]	12%	6%	–
O=C(Nc1c(Cl)cc(C(F)(F)F)cc1Cl)C(F)(F)F [GMR149]	44%	81%	Ae. aegypti OR LD50 [3]: 251 ng/mg
CC(C)(C)OC(=O)N(C(=O)C(F)(F)C(F)(F)F)c1c(Cl)cc(C(F)(F)F)cc1Cl [GMR150]	–	100%	knockdown in 1 hr repellency test (XXkd = number of insects incapacitated out of 16 females) [1]: 11; Ae. aegypti OR LD50 [3]: 629 ng/mg; 24 h LC50, μg/cm^2 ([6]; 24 h): 12 μg/cm^2
CC(C)(C)OC(=O)N(C(=O)C(F)(F)F)c1c(Cl)cc(C(F)(F)F)cc1Cl [GMR151]	32%	0%	Ae. aegypti OR LD50 [3]: >5000 ng/mg
CC(=O)N(C(C)=O)c1cccc(OC(F)(F)F)c1 [GMR159]	−26%	19%	An. gambiae AKDR LD50 [4]: ~1000 ng/mg; An. gambiae G3 LD50 [5]: >1000 ng/mg
CCC(=O)Nc1cccc(OC(F)(F)F)c1 [GMR160]	42%	16%	1 h Repellency EC50, μg/cm^2 [1]: 123 μg/cm^2

SMILES	1 h % Repellency, 100 μg/cm^2 [1]	mortality at 100 µg/cm2 [2]	also measured
CCC(=O)N(C(=O)CC)c1cccc(OC(F)(F)F)c1 [GMR161]	74%	72%	1 h Repellency EC50, μg/cm^2 [1]: 36 μg/cm^2; 24 h LC50, μg/cm^2 ([6]; 24 h): 52 μg/cm^2
C#C[C@@H]1[C@@H](C(=O)Nc2cc(F)cc(F)c2)C1(C)C [GMR180]	−24%	14.3%	–
O=C(Nc1ccc(F)cc1)C(F)(F)Sc1ccc(F)cc1 [GMR196]	18%	0%	–
CC(SC(F)(F)F)C(=O)Nc1ccc(F)cc1 (centres unmarked) [GMR197]	30%	0%	–
O=C(CCSC(F)(F)F)Nc1ccc(F)cc1 [GMR198]	8%	0%	–
O=C(c1c(F)c(F)c(F)c(F)c1F)n1nnc2ccccc21 [MT2018-0314-01]	32%	0%	–
O=C(Cc1c(F)c(F)c(F)c(F)c1F)n1nnc2ccccc21 [MT2018-0314-02]	6%	0%	–
O=C(Nc1cccc(C(F)(F)F)c1)c1c(F)c(F)c(F)c(F)c1F [MT2018-0316-01]	24%	0%	vapor repellency / mortality, statement in words (Example 8) [1]: poor results
O=C(Cc1c(F)c(F)c(F)c(F)c1F)Nc1cccc(C(F)(F)F)c1 [MT2018-0316-02]	6%	0%	–
O=C(CCl)Nc1ccccc1C(F)(F)F [MTFI-2-1A]	94%	100%	1 h Repellency EC50, μg/cm^2 [1]: 14 μg/cm^2; 24 h LC50, μg/cm^2 ([6]; 24 h): 14 μg/cm^2
O=C(Nc1ccccc1C(F)(F)F)C(F)(F)C(F)(F)F [MTFI-2-1B]	38%	0%	–
CCCCCCCCCCC(=O)Nc1ccccc1C(F)(F)F [MTFI-2-1F]	6%	0%	–
Cc1ccccc1C(=O)Nc1cc(C(F)(F)F)cc(C(F)(F)F)c1 [MTFI-3-1E]	6%	7%	vapor repellency / mortality, statement in words (Example 8) [1]: poor results
CC(=O)Nc1ccccc1C(F)(F)F [MTFI-3-2A]	80%	22%	–
O=C(Nc1cc(F)c(F)c(F)c1F)C(F)F [MTFI-5-4A]	68%	0%	–
O=C(Nc1cc(F)c(F)c(F)c1F)C(F)(F)C(F)(F)C(F)(F)F [MTFI-5-4E]	56%	6%	–
C=CCCC(=O)Nc1ccccc1C(F)(F)F [MTFI-5-5D]	56%	6%	–
O=C(CBr)Nc1ccccc1C(F)(F)F [MTFI-5-5E]	62%	60%	–
O=C(CC1CC1)Nc1cccc(C(F)(F)F)c1 [MTFI-5-6C]	50%	0%	–
CCCCC(=O)Nc1ccccc1CCCC [MTFI-5-8A]	38%	6%	–
CCCCC(=O)Nc1ccccc1OC(F)(F)F [MTFI-5-8B]	96%	13%	1 h Repellency EC50, μg/cm^2 [1]: 11 μg/cm^2
O=S(=O)(Nc1c(Cl)cc(C(F)(F)F)cc1Cl)C(F)(F)F [MTFI-5-10A]	0%	0%	–
